Legend:
[1] = tested on: cell-free peptide synthesis system derived from Escherichia coli; assay: Cell-free biosynthesis of DHFR partial sequence-HiBiT fusion proteins with tag, 10 minutes, Nano Glo HiBiT quantification; assay type: biochemical
Text: Regarding the effect of increasing the biosynthesis amount of the polypeptide by the tag (VKKTKT tag) represented by SEQ ID NO: 27, the influence of the length of the polypeptide to be synthesized was examined. The polypeptide to be biosynthesized is a fusion protein containing a partial sequence of dihydrofolate reductase (DHFR) and a luminescent (HiBiT) tag.
A fusion protein in which a partial sequence of DHFR and a HiBiT tag were linked in this order was designed. Gly-Gly-Ser was inserted as a spacer between the partial sequence of DHFR and the HiBiT tag. The amino acid sequences of these fusion proteins are set forth in SEQ ID NOs: 113 and 114, and these fusion proteins are a fusion protein (80 amino acid length) of the amino acids ranging to the amino acid at position 66 from the N-terminal of DHFR with a HiBiT tag and a fusion protein (100 amino acid length) of the amino acids ranging to the amino acid at position 86 from the N-terminal of DHFR with a HiBiT tag. The base sequences encoding these fusion proteins are SEQ ID NOs: 115 and 116.
A base sequence encoding a tagged fusion protein in which methionine, a VKKTKT tag (SEQ ID NO: 27) or a SKIK tag (SEQ ID NO: 107), and a fusion protein (any of SEQ ID NO: 113 or 114) were linked in this order was designed. In this base sequence, a base sequence (SEQ ID NO: 73 or 110) encoding a VKKTKT tag or a SKIK tag is arranged immediately after the start codon ATG, and a base sequence (any of SEQ ID NO: 115 or 116) encoding a fusion protein is arranged immediately after the base sequence encoding the VKKTKT tag or the SKIK tag.
As a control example for evaluating the effect of the VKKTKT tag or the SKIK tag, a base sequence in which a base sequence (any of SEQ ID NO: 115 or 116) encoding each of fusion protein arranged immediately after the start codon ATG was designed.
The fusion protein was expressed using a cell-free peptide synthesis system similar to the cell-free peptide synthesis system used in Example 1 by setting the incubation time of biosynthesis to 10 minutes. The obtained fusion protein was quantified using Nano Glo HiBiT Lytic Detection System (Promega, N3040). The measurement was performed twice, and the average value of the amounts of the fusion protein was calculated. […] The control example of the reference value 1 has a form in which the base sequence (SEQ ID NO: 115 or 116) encoding the fusion protein is arranged immediately after the start codon ATG.

[2] = tested on: cell-free peptide synthesis system derived from Escherichia coli; assay: Cell-free biosynthesis of the integrin binding peptide fusion protein with N-terminal tag, 1 hour reaction, amount measured by ELISA; assay type: biochemical
Text: In the cell-free peptide synthesis system derived from Escherichia coli, the effect of the VKKX tag on the biosynthesis amount of the polypeptide was examined. As a polypeptide to be biosynthesized, an integrin binding peptide containing cysteine and chloroacetyl lysine was selected. In this polypeptide, a thiol group of cysteine and a chloroacetyl group of chloroacetyl lysine spontaneously form a thioether bond to become a cyclic polypeptide.
A fusion protein in which an integrin binding peptide, a Myc tag, and a HiBiT tag were linked in this order was designed. As a spacer, Gly-Gly-Ser was inserted between the integrin binding peptide and the Myc tag and between the Myc tag and the HiBiT tag. The amino acid sequence of this fusion protein is SEQ ID NO: 5, and the base sequence encoding this fusion protein is SEQ ID NO: 6. In SEQ ID NO: 5, the integrin binding peptide ranges to the amino acid at the twelfth position (that is, alanine) from an N-terminal, and the amino acid at eleventh position from the N-terminal is chloroacetyl lysine. The triplet TAG at the positions 31 to 33 from the 5′ terminal of the base sequence set forth in SEQ ID NO: 6 was assigned to the codon of chloroacetyl lysine. The end of the base sequence set forth in SEQ ID NO: 6 is the stop codon TAA.
A base sequence encoding a tagged fusion protein in which methionine, a VKKX tag (any of SEQ ID nOs: 7 to 52), and a fusion protein (SEQ ID NO: 5) were linked in this order was designed. In this base sequence, a base sequence (any of SEQ ID nOs: 53 to 98) encoding a VKKX tag is arranged immediately after the start codon ATG, and a base sequence encoding a fusion protein immediately after the base sequence (SEQ ID NO: 6) encoding the VKKX tag is arranged.
As a control example for evaluating the effect of the VKKX tag, a base sequence in which a base sequence (SEQ ID NO: 6) encoding a fusion protein arranged immediately after the start codon ATG was designed.
In order to translate chloroacetyl lysine which is an unnatural amino acid, a tRNA in which the anticodon was CUA and paired with the UAG codon of mRNA was prepared. This tRNA was aminoacylated with an N-chloroacetyl lysine hosphoro 2′ deoxyribocytidylylriboadenosine (pdCpA) ester. This aminoacyl tRNA is referred to as an Aminoacyl tRNA (1).
The cell-free biosynthesis of the polypeptide was carried out in a translation solution containing a template DNA, PUREfrex 2.0 (GeneFrontier, PF201-0.25-5), and Aminoacyl tRNA (1). 1.25 μL (62.5 ng) of the template DNA prepared to 50 ng/μL, 2.5 μL of PUREfrex 2.0 Solution I, 0.25 μL of Solution II, 0.5 μL of Solution III, and 0.5 μL of Aminoacyl tRNA (1) were mixed and mixture was subjected to a reaction at 37° ° C. for 1 hour.
The amount of the biosynthesized polypeptide was measured by ELISA. 50 ng of Recombinant Human Integrin αVβ3 (R&D systems, 3050-AV-050) was immobilized in each well of a 96-well plate and blocked with Blocker Casein in PBS (Thermo, 37528), and then a cell-free biosynthesis solution diluted with Can Get Signal Immunoreaction Enhancer Solution I (TOYOBO, NKB-101) containing 5 mmol/L MgCl2 was added thereto, and the mixture was subjected to a reaction at room temperature for 3 hours. After washing with 5 mmol/L MgCl2/0.05% Tween 20-containing phosphate buffered saline (PBS), an anti-Myc antibody (Cell Signaling, 14038S) diluted with Can Get Signal Immunoreaction Enhancer Solution II (TOYOBO, NKB-101) was added thereto, and the mixture was subjected to a reaction at room temperature for 2 hours. After washing with PBS containing 5 mmol/L MgCl2/0.05% Tween 20, Super Signal ELISA Femto Substrate (Thermo, 37075) was added thereto, and the luminescence was measured. The amount of the fusion protein in the cell-free biosynthesis solution was calculated based on a calibration curve created from the fusion protein having a known concentration. The luminescence measurement was performed twice, and the average value of the amounts of the fusion protein was calculated. […]

[3] = fusion protein SEQ ID NO 113, amino acid length 80, control without tag = 1
[4] = fusion protein SEQ ID NO 114, amino acid length 100, control without tag = 1

Row | Substance | Biosynthesis amount of fusion protein [1, 3] | Biosynthesis amount of fusion protein [1, 4] | increase of biosynthesis amount of the fusion protein ([2]; Example 1, versus control without tag, fusion protein SEQ ID NO: 5, 1 hour) [times] | Biosynthesis amount of fusion protein ([2]; relative value, control example without tag = 1, fusion protein SEQ ID NO: 5, 37° C. for 1 hour, average of two measurements) | Biosynthesis amount of fusion protein ([2]; tag encoded by base sequence SEQ ID NO 73, GC content 17%, control without tag = 1) | Biosynthesis amount of fusion protein ([2]; tag encoded by base sequence SEQ ID NO 111, GC content 33%, control without tag = 1) | Biosynthesis amount of fusion protein ([2]; tag encoded by base sequence SEQ ID NO 112, GC content 50%, control without tag = 1) | Biosynthesis amount of fusion protein ([2]; tag encoded by base sequence SEQ ID NO 108, GC content 8%, control without tag = 1) | Biosynthesis amount of fusion protein ([2]; tag encoded by base sequence SEQ ID NO 109, GC content 25%, control without tag = 1) | Biosynthesis amount of fusion protein ([2]; tag encoded by base sequence SEQ ID NO 110, GC content 42%, control without tag = 1)
1 | SEQ ID NO: 27: VKKX tag, amino acid sequence VKKTKT (VKKX Tag) | 1.67 | 1.24 | 4.9 | 4.94 | 4.94 | 3.83 | 3.77 |  |  | 
2 | SEQ ID NO: 107: tag consisting of an amino acid sequence of SKIK, disclosed in WO2016/204198A; comparative control (SKIK Tag) [reference compound] | 1.13 | 0.73 |  |  |  |  |  | 3.79 | 4.18 | 1.46
